Our source for the logD values is the SangsterLogP compilation.

The first data set can be described thus: method code SF-RC, from Fauchere, J.; Pliska, V. (1983). Hydrophobic parameters of aminoacid side chains from the partitioning of N-acetylaminoacid amides. Eur J Med Chem, 18(4)369-375. As to conditions: pH 7.1.
As for `CC(=O)N[C@@H](CC(C)C)C(N)=O`, the logD (usually lipophilicity at a set pH, counting ionised and neutral species) was -0.13. Compound `CC(=O)N[C@@H](Cc1cnc[nH]1)C(N)=O` registered a logD of -1.7. Regarding `CC(=O)N[C@@H](CO)C(N)=O`, the logD was -1.87. The compound `CCC(C)C(NC(C)=O)C(N)=O` (configuration not stated) displayed a logD of -0.03.

Take `CC(=O)N[C@H](C(N)=O)C(C)C`: the pH-dependent lipophilicity (logD) was -0.61. In turn, `CC(=O)NC(CCC(N)=O)C(N)=O` (configuration not stated) came in with a logD of -2.05.

`CC(=O)N[C@@H](CC(N)=O)C(N)=O` returned a logD of -2.41. Same read-out and setting: the figure for `CC(=O)N1CCC[C@H]1C(N)=O` is -1.34. For `CC(=O)NC(C(N)=O)C(C)O` (configuration not stated), the logD was -1.57. Still for that read-out and setting: the figure for `CC(=O)NC(CC12CC3CC(CC(C3)C1)C2)C(N)=O` (configuration not stated) is 1.9.

The nature of another data set: method code SF-CR+AS, from Fauchere, J.; Pliska, V. (1983). Hydrophobic parameters of aminoacid side chains from the partitioning of N-acetylaminoacid amides. Eur J Med Chem, 18(4)369-375. Particulars: pH 7.1.
In turn, `CC(=O)N[C@H](CS)C(N)=O` had a logD of -0.29. Compound `CC(=O)NC(=O)C(N)CSSCC(N)C(=O)NC(C)=O` (configuration not stated) displayed a logD of -1.7.
